# Several values for one entry are separate records, joined by “and”; a condition that tells them apart may be missing. Identical values can stand only once. Entries after “also recorded” stand apart in the source; their conditions may differ. Like-named read-outs stand apart in the source and are kept apart here.
# Key:
# [1] = ref 27,71 (S1 Protocol); cited from earlier work
# [2] = tested on: AR-V7 prostate cancer models; design: method as in ref 28 (S1 Protocol, Liu et al, 2014); details: in vitro, 48 hours exposure; ref 28 (S1 Protocol, Liu et al, 2014); cited from earlier work
# [3] = Phase I dose-escalation: adverse events and dose-limiting toxicities (CTCAE v4.0)
# Procedure: All patients were required to have mCRPC (i.e., disease progression in spite of serum testosterone ≤50 ng/dL) and had received prior abiraterone. Patients were originally required to have detectable AR-V transcripts in circulating tumor cells (CTC) as determined using the AdnaTest assay[9]. […] The primary objective was to assess safety.
# We utilized the continual reassessment method (CRM) to evaluate dose-related toxicities and to determine the recommended Phase II dose[37]. We targeted a maximum of 30% of patients incurring dose-limiting toxicities (DLT) up to 30 days after the final (day-28) dose. […] Adverse events (AEs) were documented by incidence and their severity was graded according to the National Cancer Institute–Common Terminology Criteria for Adverse Events (CTCAE) version 4.0. The pharmacokinetic data underwent non-compartmental analysis using Phoenix WinNonlin version 8.0 (Certara USA, Inc; Princeton, NJ), and key pharmacokinetic parameters (e.g., Cmax, Cmin, Css and t1/2) were extracted.
# [4] = published pharmacokinetics data; cited from earlier work
# [5] = tested on: metastatic CRPC (PSA); test: On-study PSA changes; assay type: in vivo, human
# Excerpt: The primary objective was to assess safety.
# [6] = tested on: enzalutamide-resistant, AR-V7+ C4-2B cells; details: co-cultured with 81.8 ng/mL; cited from earlier work
# [7] = prior experience; ref 27,60 (S1 Protocol); cited from earlier work
# [8] = tested on: enzalutamide-resistant LNCaP cells engineered to maintain Stat3 activation; details: cited from earlier work
# [9] = tested on: AR-V7+ CWR22Rv1 cells; details: 81.8 ng/mL; cited from earlier work
# [10] = Plasma niclosamide pharmacokinetics (LCMS, non-compartmental analysis); assay type: in vivo, human
# Procedure: Blood for pharmacokinetic analyses were drawn at the following time points after the first dose: 0.5 hr, 1 hr, 1.5 hr, 2 hr, 3 hr, 4 hr, 6 hr, 8 hr and on Day 15. […] After vortexing, the samples were centrifuged at 20000 x G for 10 minutes at 4°C. The supernatant was transferred to a 96-well plate and 2 μL were injected on the liquid chromatography mass spectrometry (LCMS) system. The LCMS system was an ultrapressure liquid chromatography (Agilent (Santa Clara, CA) 1290 series) coupled to an Agilent G6410B triple-quadrupole mass spectrometer. The column was an Agilent Zorbax SB-C18 2.1 mm x 150 mm x 5μ maintained at 45°C. Mobile phase A was 10 mM ammonium formate (pH = 3) and mobile phase B was acetonitrile in the ratio of 35% A: 65% B at 0.4 mL/min.
# [11] = rats; ref 62 (S1 Protocol, WHO/VBC/DS/88.63); cited from earlier work
# [12] = tested on: AR-V7 prostate cancer models; design: method as in ref 28,29 (S1 Protocol); details: combined with enzalutamide or abiraterone; ref 28,29 (S1 Protocol); cited from earlier work
# [13] = tested on: DU145; details: cited from earlier work
# [14] = tested on: abiraterone and/or enzalutamide-resistant models, including AR-V7+ cell lines; details: cited from earlier work
# [15] = AE possibly/probably related, 500 mg PO TID + enzalutamide, Pt# 1, 17, 18
# [16] = AE possibly/probably related, 1000 mg PO TID + enzalutamide, Pt# 19, 20
# [17] = first dose 500 mg PO, plasma, individual patients Pt# 1, 17, 18
# [18] = first dose 500 mg PO, Pt# 1, 17, 18
# [19] = first dose 1000 mg PO, plasma, individual patients Pt# 19, 20
# [20] = first dose 1000 mg PO, Pt# 19, 20
smiles,measurement,setting,value
"O=C(Nc1ccc([N+](=O)[O-])cc1Cl)c1cc(Cl)ccc1O [niclosamide, 2',5-dichloro-4'-nitrosalicylanilide]",solubility in acetone,[1],soluble
same,"solubility in ethanol, chloroform, or ether",[1],sparingly soluble
same,solubility in water,[1],almost insoluble
same,lowest concentration inducing apoptosis / inhibiting cell line growth,[2],≥ 0.25 µg/mL
same,patients with any toxicities deemed at least possibly related to niclosamide,[3]; 500 mg PO TID cohort,one out of three
same,dose-limiting toxicities (DLTs),"[3]; 500 mg PO TID cohort, 3 patients, + enzalutamide",no dose-limiting toxicities; also recorded: No DLTs observed
same,tolerability,[3]; 500 mg PO TID in combination with enzalutamide,well tolerated
same,Nausea (Grade),"[3]; AE possibly/probably related, 500 mg PO TID + enzalutamide 160 mg daily, Pt# 1, 17, 18",1 Grade
same,Anorexia (Grade),[3]; [15],1 Grade
same,Weight loss (Grade),[3]; [15],1 Grade
same,Nausea (Grade),"[3]; AE possibly/probably related, 1000 mg PO TID + enzalutamide 160 mg daily, Pt# 19, 20",3 Grade and 3 ^* Grade and 2 Grade
same,Abdominal pain (Grade),[3]; [16],3 Grade
same,Anorexia (Grade),[3]; [16],1 Grade
same,Colitis (Grade),[3]; [16],3 Grade and 3 ^** Grade
same,Diarrhea (Grade),[3]; [16],3 Grade
same,Lipase elevation (Grade),[3]; [16],2 Grade
same,Vomiting (Grade),[3]; [16],3 Grade
same,maximum tolerated dose,"[3]; PO TID, in combination with enzalutamide 160 mg daily",500 mg
same,oral bioavailability,[4],poor oral bioavailability
same,PSA Day 29,"[5]; 1000 mg PO TID + enzalutamide, Pt# 19",3009.49 ng/mL
same,PSA Change (%),"[5]; Day 1 to Day 29, 1000 mg PO TID + enzalutamide, Pt# 19",101.7%
same,PSA declines,"[5]; all dose cohorts, niclosamide + enzalutamide",no PSA declines; also recorded: no evidence for declining PSA
same,clinical activity,"[5]; any patient enrolled, niclosamide + enzalutamide",no evidence of clinical activity
same,growth inhibition,[6],growth inhibited
same,"patients with gastrointestinal side effects (nausea, vomiting and stomach pain)",[7],~ 10%
same,concentrations at which cells were growth inhibited,[8],≥ 163.5 ng/mL
same,growth inhibition,[9],did not demonstrate significant growth inhibition
same,patients achieving a Cmax ≥163.5 ng/mL,[10]; 500 mg PO TID cohort,one of three
same,patients achieving a Cmax ≥163.5 ng/mL,[10]; 1000 mg PO TID cohort,one of two
same,Cmax,[10]; [17],35.7 ng/mL and 88.3 ng/mL
same,Tmax,[10]; [17],6 h and 2 h and 1 h
same,% of AUC0-∞ extrapolated,[10]; [18],26.6% and 13.7% and 17.2%
same,Cmin,[10]; [18],13.3 ng/mL and 6.92 ng/mL and 7.42 ng/mL
same,Tmin,[10]; [18],4 h and 8 h
same,Cmax,[10]; [19],149 ng/mL
same,Tmax,[10]; [19],1 h and 6 h
same,First dose AUC0-∞,"[10]; first dose 1000 mg PO, Clast/elimination rate constant used for extrapolation, Pt# 19, 20",986 ng·h/mL
same,% of AUC0-∞ extrapolated,[10]; [20],36.0% and 36.2%
same,Apparent oral clearance (clearance divided by fraction absorbed),[10]; [20],14.9 L/hr per kg of IBW
same,Cmin,[10]; [20],45.5 ng/mL and 90.0 ng/mL
same,First dose AUC0-τ,[10]; [20],629 ng·h/mL
same,Tmin,[10]; [20],8 h
same,Cmax,"[10]; human, plasma, po, 1000 mg, first dose 1000 mg PO, plasma, individual patients Pt# 19, 20, read-out: Cmax",182 ng/mL
same,AUC(0-inf),"[10]; human, plasma, po, 1000 mg, first dose 1000 mg PO, Clast/elimination rate constant used for extrapolation, Pt# 19, 20, read-out: First dose AUC0-∞",1060 ng·h/mL
same,CL/F,"[10]; human, plasma, po, 1000 mg, first dose 1000 mg PO, Pt# 19, 20, read-out: Apparent oral clearance (clearance divided by fraction absorbed) (converted)",203 mL/min/kg
same,AUC,"[10]; human, plasma, po, 1000 mg, first dose 1000 mg PO, Pt# 19, 20, read-out: First dose AUC0-τ",676 ng·h/mL
same,CL/F,"[10]; male, human, plasma, po, 1000 mg, all 5 patients, 500 and 1000 mg cohorts, read-out: apparent oral clearance (CL/F), range over patients",152 to 630 mL/min/kg
same,oral LD50,[11],"> 5,000 mg/kg body weight"
same,anti-tumor effect of combination,[12],synergistic
same,"IC50, decreased cell proliferation",[13],330 ng/mL
same,concentrations that consistently inhibited cell growth,[14],≥ 163.5 ng/mL
same,lowest concentration inhibiting some AR-V7+ cell lines,[14],≥ 81.8 ng/mL
